Data on 13 compounds can be found in patent US10093673B2, “Tetracyclic pyridone compounds as antivirals” (Novartis AG, priority 2016, dated 2018).

Values after ≈ are worked out from the molar mass of the structure shown. Like-named read-outs stand apart in the source and are kept apart here.

Data set [1] deals with HBsAg secretion. The data set can be described thus: HBsAg assay (ELISA of secreted HBsAg, HepG2-Clone42 cells). Type of data set: cell-based, HBV. The protocol: HepG2-Clone42, a Tet-inducible HBV-expressing cell line with a stably integrated 1.3mer copy of the HBV ayw strain, was generated based on the Tet-inducible HepAD38 cell line with slight modifications. Ladner S K, et al., Antimicrobial Agents and Chemotherapy. 41(8):1715-1720 (1997). HepG2-Clone42 cells were cultured in DMEM/F-12+Glutamax™ (Life Technologies, Carlsbad, Calif., USA), supplemented with 10% fetal bovine serum (Life Technologies), G-418 (Corning, Manassas, Va., USA) at a final concentration of 0.5 mg/mL, and 5 μg/mL Doxycycline (Sigma, St. Louis, Mo., USA) and maintained in 5% CO2 at 37° C.
HepG2-Clone42 cells were seeded in into black clear-bottom 96-well plates at a concentration of 6.0×10^4 cells/well. 24 hours post-seeding, the cells were treated with 200 μl/well of media containing five-fold serial dilutions of compounds in DMSO. DMSO alone was used as the no drug control. The final DMSO concentration in all wells was 0.5%.
The HBsAg ELISA kit (Alpha Diagnostic International, San Antonio, Tex., USE, Catalog #4110) was used to determine the level (semi-quantitative) of secreted HBV sAg.
The HBSAg ELISA assay was performed following the manufacturer's protocol as described.
Step 1. Pipet 100 μL each of compound or DMSO treated samples into HBsAg ELISA plates. Seal plates and incubate at room temp for 60 minutes.
Step 2. Aspirate samples and wash three times with Wash Buffer. Dispense 100μ of antibody-HRP conjugate to each well. Incubate at room temp for 30 minutes.
Step 3. Aspirate samples and wash three times with Wash Buffer. Add 100 μL of TMB Substrate to all wells and incubate 15 minutes at room temp.
Step 4. Dispense 100 μL of Stop Solution to each well. Measure absorbance of ELISA plate at 450 nm.
EC50 values were determined as follows: • 1. Determine the percent of HBsAg secretion inhibition. Calculate the percent inhibition on of HBsAg secretion inhibition using the following equation: 100×(XC−MB)/(MD−MB) • where XC is the absorbance signal from compound-treated well; MB is average absorbance signal (background signal) for column 12 (no cells+HBsAg ELISA sample buffer) and MD is average absorbance signal from DMSO-treated wells. Then calculate EC50 values by non-linear regression using a four parameter curve logistic equation. The curve fit model employed is XLFit Dose Response One Site Model 204: y=(A+((B−A)/(1+(10^((C−x)*D))))) where A is the minimum y value, B is the maximum y value, C is the log EC50 value, and D is the slope factor. High Throughput Solubility Measurement • 1. Transfer 20 ul of 10 mM DMSO stock solution into a 96 deep well plate labeled as […] and 5 ul to another plate labeled as compound standard plate. • 2. Place the buffer plate in a Multi-Tainer MT-4 container (FTS Systems). Freeze dry overnight to remove DMSO. • 3. Add 100 ul of Cl-free PBS (pH 6.8) to the dried compound in the buffer plate and 95 ul of DMSO to the standard plate. • 4. The buffer plate is be sonicated in a water bath for 10 min. • 5. The two plates are then placed onto the VWR orbital shaker to equilibrate for 24 hours at room temperature. • 6. The buffer plate is centrifuged at 4000 rpm for 30 min. • 7. Transfer 10 ul aliquots of supernatant from the buffer plate to a sample plate and dilute 5 fold. • 8. Inject both compound standard and sample into the UPLC/UV/CLND/MS to generate multi detector qualitative and quantitive analytical data. • 9. Data was processed with Xcalibur. CLND equimolar response was used for measuring compound concentration of DMSO solution. UV270 nm or MS relative ratio was used for solubility determination.

Data set [2] is described as follows: Pharmacokinetics in mice (iv and PO). Type of data set: in vivo.
The nature of data set [3]: Pharmacokinetics in dog (iv and PO). The data set is classed as in vivo.
A short description of data set [4]: High throughput solubility measurement in PBS. The data set is classed as physicochemical. The settings on record: Cl-free PBS, aqueous buffer, thermodynamic from solid; PBS (phosphate-buffered saline), pH 6.8, 24 hours at room temperature. From the text: The following table provides data for solubility of compounds of the invention in PBS (phosphate-buffered saline), using a standard solubility screening method.

Data set [5] is described as follows: Pharmacokinetics in rat (iv and PO). The data set is classed as in vivo.
[6] abbreviates: Hepatitis B virus, read-out: HBsAg EC50, HepG2-Clone42 cells, HBsAg secretion reduced 50% vs DMSO control.
The mark [7] stands for this setting: read-out: HBsAg EC50, HepG2-Clone42 cells, HBsAg secretion reduced 50% vs DMSO control.

Regarding `COCCCOc1cc2c(cc1Cl)-c1cc(=O)c(C(=O)O)cn1[C@H]1[C@@H]2CCC1(C)C` (stereo in doubt) [Compound 5.1, (3aS,12bR)-10-chloro-11-(3-methoxypropoxy)-3,3-dimethyl-7-oxo-1,2,3,3a,7,12b-hexahydrocyclopenta[c]pyrido[2,1-a]isoquinoline-6-carboxylic acid], the EC50 in data set [1] (setting [6]) is 6 nM.
Turning to `COCCCOc1cc2c(cc1OC)-c1cc(=O)c(C(=O)O)cn1[C@@H]1[C@H]2CCC1(C)C` [Compound 1.2, (3aR,12bS)-10-methoxy-11-(3-methoxypropoxy)-3,3-dimethyl-7-oxo-1,2,3,3a,7,12b-hexahydrocyclopenta[c]pyrido[2,1-a]isoquinoline-6-carboxylic acid], the EC50 in data set [1] (setting [6]) came to 13 nM.
`COCCCOc1cc2c(cc1OC)-c1cc(=O)c(C(=O)O)cn1[C@H]1[C@H]2CCC1(C)C` (racemic) [rac-2, 10-methoxy-11-(3-methoxypropoxy)-3,3-dimethyl-7-oxo-1,2,3,3a,7,12b-hexahydrocyclopenta[c]pyrido[2,1-a]isoquinoline-6-carboxylic acid]: the EC50 in data set [1] (setting [6]) worked out at 460 nM.
As for `COCCCOc1cc2c(cc1Cl)-c1cc(=O)c(C(=O)O)cn1[C@@H]1[C@H]2CCC1(C)C` [Compound 5.2, (3aR,12bS)-10-chloro-11-(3-methoxypropoxy)-3,3-dimethyl-7-oxo-1,2,3,3a,7,12b-hexahydrocyclopenta[c]pyrido[2,1-a]isoquinoline-6-carboxylic acid], the EC50 in data set [1] (setting [6]) is 0.1 nM.
With `COCCCOc1cc2c(cc1OC)-c1c(F)c(=O)c(C(=O)O)cn1C1[C@H]2OCC1(C)C` (some centres unmarked) [Compound 7.2], in data set [1] (setting [6]), the EC50 worked out at 90 nM.
On the same count and under the same terms, the figure for `COCCCOc1cc2c(cc1OC)-c1c(F)c(=O)c(C(=O)O)cn1[C@@H]1[C@H]2CCC1(C)C` (racemic) [Compound 3.2] is 740 nM; for `COCCCOc1cc2c(cc1OC)-c1c(F)c(=O)c(C(=O)O)cn1[C@H]1[C@@H]2OCC1(C)C` [Compound 7.1, (3aR,12bR)-8-fluoro-10-methoxy-11-(3-methoxypropoxy)-3,3-dimethyl-7-oxo-3,3a,7,12b-tetrahydro-2H-furo[3,2-c]pyrido[2,1-a]isoquinoline-6-carboxylic acid] it is 0.8 nM.
For the compound `COCCCOc1cc2c(cc1OC)-c1cc(=O)c(C(=O)O)cn1C1C2CCCC1(C)C` (single isomer, unassigned) [Compound 9.1, 11-methoxy-12-(3-methoxypropoxy)-4,4-dimethyl-8-oxo-2,3,4,4a,8,13b-hexahydro-1H-pyrido[1,2-f]phenanthridine-7-carboxylic acid], the EC50 in data set [1] (setting [7]) turned out to be 9 nM.
On to `COCCCOc1cc2c(cc1OC)-c1cc(=O)c(C(=O)O)cn1[C@H]1[C@@H]2CCC1(C)C` [Compound 1.1, (3aS,12bR)-10-methoxy-11-(3-methoxypropoxy)-3,3-dimethyl-7-oxo-1,2,3,3a,7,12b-hexahydrocyclopenta[c]pyrido[2,1-a]isoquinoline-6-carboxylic acid], for which the concentration for a half-maximal effect (EC50) in data set [1] (setting [6]) amounted to 0.1 nM. For the same compound, the T1/2term. turned out to be 1.6 h in data set [2], 5.9 h in data set [3] and 2.4 h in data set [5]. Moreover, the Cmax came out at 570 nM in data set [2] (mouse, in vivo, PO 2.0 mg/kg); 1900 nM in data set [3] (in vivo, PO 1.0 mg/kg); 1720 nM in data set [5] (in vivo, PO 2.0 mg/kg). In addition, the time of peak concentration (Tmax) in data set [2] (mouse, in vivo, PO 2.0 mg/kg) came out at 0.5 h; in data set [3] (in vivo, PO 1.0 mg/kg) it was 0.22 h; in data set [5] (in vivo, PO 2.0 mg/kg), 1.33 h. The exposure (AUC) turned out to be 1.7 µM·h in data set [2] (mouse, in vivo, PO 2.0 mg/kg, read-out: AUC PO); 1.5 µM·h in data set [2] (mouse, in vivo, iv 1.0 mg/kg, read-out: AUC iv); 5.7 µM·h in data set [3] (in vivo, PO 1.0 mg/kg, read-out: AUC PO); 3.1 µM·h in data set [3] (in vivo, iv 0.5 mg/kg, read-out: AUC iv); 4.5 µM·h in data set [5] (in vivo, PO 2.0 mg/kg, read-out: AUC PO); 2.5 µM·h in data set [5] (in vivo, iv 1.0 mg/kg, read-out: AUC iv). Also, the clearance in data set [2] (mouse, in vivo, iv 1.0 mg/kg) amounted to 24.6 mL/min/kg; in data set [3] (in vivo, iv 0.5 mg/kg), 6.4 mL/min/kg; in data set [5] (in vivo, iv 1.0 mg/kg), 15.3 mL/min/kg. The bioavailability was 59% in data set [2] (mouse, in vivo, iv 1.0 mg/kg, PO 2.0 mg/kg, read-out: Oral BA (% F)); 93% in data set [3] (in vivo, iv 0.5 mg/kg, PO 1.0 mg/kg, read-out: Oral BA (% F)); 97% in data set [5] (in vivo, iv 1.0 mg/kg, PO 2.0 mg/kg, read-out: Oral BA (% F)). Besides, the Vd in data set [2] (mouse, in vivo, iv 1.0 mg/kg, read-out: Vss) came to 3.6 L/kg; in data set [3] (in vivo, iv 0.5 mg/kg, read-out: Vss), 1.7 L/kg; in data set [5] (in vivo, iv 1.0 mg/kg, read-out: Vss), 1.3 L/kg. Moreover, the solubility at 24 h in data set [4] was determined as 2400 µM (≈ 1030 µg/mL).
Turning to `COCCCOc1cc2c(cc1OC)-c1cc(=O)c(C(=O)O)cn1[C@H]1[C@@H]2COC1(C)C` [Compound 8.1, (3aS,12bR)-10-methoxy-11-(3-methoxypropoxy)-3,3-dimethyl-7-oxo-3,3a,7,12b-tetrahydro-1H-furo[3,4-c]pyrido[2,1-a]isoquinoline-6-carboxylic acid], the EC50 in data set [1] (setting [6]) was 1 nM.
For the compound `COCCCOc1cc2c(cc1OC)-c1cc(=O)c(C(=O)O)cn1C1CCCC21` (centres unmarked) [Compound 6.2, 10-methoxy-11-(3-methoxypropoxy)-7-oxo-1,2,3,3a,7,12b-hexahydrocyclopenta[c]pyrido[2,1-a]isoquinoline-6-carboxylic acid], the concentration for a half-maximal effect (EC50) in data set [1] (setting [7]) was 5 nM.
For `COCCCOc1cc2c(cc1OC)-c1cc(=O)c(C(=O)O)cn1C1C2CCCC1(C)C` (single isomer, unassigned) [Compound 9.2, 11-methoxy-12-(3-methoxypropoxy)-4,4-dimethyl-8-oxo-2,3,4,4a,8,13b-hexahydro-1H-pyrido[1,2-f]phenanthridine-7-carboxylic acid], the half-maximal effective concentration (EC50) in data set [1] (setting [7]) came out at 303 nM.
Regarding `COCCCOc1cc2c(cc1OC)-c1cc(=O)c(C(=O)O)cn1C1CCCC21` (centres unmarked) [Compound 6.1, 10-methoxy-11-(3-methoxypropoxy)-7-oxo-1,2,3,3a,7,12b-hexahydrocyclopenta[c]pyrido[2,1-a]isoquinoline-6-carboxylic acid], the EC50 in data set [1] (setting [6]) turned out to be 9 nM.
